According to patent US6391303B1, “Methods and compositions for inducing oral tolerance in mammals” (Emisphere Technologies, Inc., priority 1996, dated 2002):

How the values were obtained:
[1] = tested on: anti-HA (influenza) IgG antibodies; assay: ELISA for serum anti-HA IgG after single oral dose of influenza vaccine with delivery agent; assay type: in vivo, BALB/c mice; settings: single oral dose 15 μg influenza vaccine A/Johannesburg/39/94 (H3N2) + 500 mg/kg delivery agent
Description: Ten BALB/c mice were administered a single oral dose of 15 μg of influenza antigen [influenza vaccine A/Johannesburg/39/94 (H3N2)] per mouse with 500 mg/kg of E352.
1. Coat plates with HA antigen, 10 μg/mL in carbonate buffer.
3. Block with Superblock™ or 1/10 diluted Bovine Serum Albumin (BSA).
4. Add 100 μL per well of diluent (Superblock™ or 1/15 diluted BSA) to all except the top row.
5. In the first row, add 150 μL per well of 1/100 diluted test serum in duplicate and serially dilute 3× down the plate. Leave 2 empty wells as background.
6. Incubate 2 hours at room temperature.
8. To each well, add 100 μl of IgG isotype-specific anti-mouse alkaline-phosphatase conjugated antibody (diluted with 4% PEG 6000).20. Incubate overnight at 4/C.
10. Add 100 μL per well of p-nitrophenyl phosphate (pNPP) substrate solution and incubate in the dark with shaking for 30 minutes.
11. Read and record OD405 after subtracting the background absorbance.

[2] = tested on: Experimental Autoimmune Encephalomyelitis (EAE)
Description: Two days after the (last) oral dose, all groups were challenged in the footpad with 0.05 mg of MBP emulsified with Complete Freund's Adjuvant containing Mycobacterium tuberculosis H37Ra, 4 mg/ml. Clinical signs of disease were observed starting on Day 11 after the challenge and rated on a scale of 0 (no disease) to 5 (death).

[3] = single dose MBP + delivery agent versus one or five doses of MBP alone

Which “serum anti-HA IgG titer relative to control fed only influenza antigen” value [1] does the source give for O=C(O)CCCc1ccc(NC(=O)c2ccccc2O)cc1 [E352, 4-[4-(N-salicyloyl)]aminophenyl butyric acid] here?
The value was “significantly suppressed the production of anti-influenza antibodies”.

What about the “Mean Disease Index per group (highest mean score multiplied by the duration of symptoms)” value [2, 3] of the same compound?
Its value is “suppressed these disease parameters significantly”.

What about the “mean Maximal Score per group” value [2, 3] of the same compound?
Its value is “suppressed these disease parameters significantly”.

And the “mean day of onset of paralysis” value ([2]; single oral dose 1.0 mg MBP alone or with delivery agent, day after challenge)?
The value was 16 days.

What about the “clinical disease (Mean Clinical Score) of EAE” value ([2]; single oral dose 1.0 mg MBP with delivery agent, footpad challenge 0.05 mg MBP/CFA, scale 0 to 5) of the same compound?
Its value is “suppression of clinical disease”.
